Assay results published in PMC6166229 (Journal of Medicinal Chemistry, 2018).
One block for each molecule: values may come before it.

Columns and labels:
[1] = Microsomal clearance, human liver microsomes; type: in vitro ADME; details: both, pH 7.4, Clint human
MPS1 = molecular target: T1, MPS1 (Homo sapiens, UniProt P33981); type: biochemical; details: 2,2-dimethylazetidine 48 compared with neopentyl-like analogue (47)
T1 sequence (P33981 1-857): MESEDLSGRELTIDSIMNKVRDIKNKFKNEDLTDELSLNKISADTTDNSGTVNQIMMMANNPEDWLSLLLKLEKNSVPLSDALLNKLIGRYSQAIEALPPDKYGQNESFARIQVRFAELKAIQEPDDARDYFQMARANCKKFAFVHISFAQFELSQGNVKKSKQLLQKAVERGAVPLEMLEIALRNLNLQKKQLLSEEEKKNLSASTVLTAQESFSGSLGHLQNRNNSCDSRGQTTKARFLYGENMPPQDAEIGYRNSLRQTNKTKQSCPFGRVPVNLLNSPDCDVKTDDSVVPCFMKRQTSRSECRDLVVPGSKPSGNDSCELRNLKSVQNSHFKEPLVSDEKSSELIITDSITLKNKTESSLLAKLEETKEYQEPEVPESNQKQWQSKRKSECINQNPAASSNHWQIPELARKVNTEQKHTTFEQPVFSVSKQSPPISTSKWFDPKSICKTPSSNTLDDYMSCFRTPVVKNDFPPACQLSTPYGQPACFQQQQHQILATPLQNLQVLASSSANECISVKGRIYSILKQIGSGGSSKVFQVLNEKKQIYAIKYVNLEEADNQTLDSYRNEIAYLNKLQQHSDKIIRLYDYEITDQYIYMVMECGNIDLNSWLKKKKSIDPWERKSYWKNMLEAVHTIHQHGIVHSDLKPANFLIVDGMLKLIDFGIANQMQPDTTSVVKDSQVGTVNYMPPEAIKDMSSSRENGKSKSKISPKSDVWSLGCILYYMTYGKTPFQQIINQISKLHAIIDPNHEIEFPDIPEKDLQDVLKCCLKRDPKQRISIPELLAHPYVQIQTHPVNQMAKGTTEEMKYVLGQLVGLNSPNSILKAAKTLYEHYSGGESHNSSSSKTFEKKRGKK

[2] = Dog blood pharmacokinetics; type: in vivo; details: whole blood, iv, 1 mg/kg

microsomal CLint at 1 μM [1]: 79 µL/min/mg
Structure (SMILES): COc1cc(-c2cnc(C)n2C)ccc1Nc1ncc2ccnc(NCC(C)(C)C)c2n1 [Compound 16, N^2-(4-(1,2-Dimethyl-1H-imidazol-5-yl)-2-methoxyphenyl)-N^8-neopentylpyrido[3,4-d]pyrimidine-2,8-diamine]

fold higher IC50 (MPS1): 40 fold
Structure (SMILES): CCOc1cc(-c2nncn2C)ccc1Nc1ncc2cc(C)nc(N3CCC3(C)C)c2n1 [Compound 48, 8-(2,2-Dimethylazetidin-1-yl)-N-(2-ethoxy-4-(4-methyl-4H-1,2,4-triazol-3-yl)phenyl)-6-methylpyrido[3,4-d]pyrimidin-2-amine]

clearance [2]: 1.2 mL/min/kg
Structure (SMILES): CCOc1cc(-c2nncn2C)ccc1Nc1ncc2cc(C)nc(NCC(C)(C)C)c2n1 [Compound 36, N^2-(2-Ethoxy-4-(4-methyl-4H-1,2,4-triazol-3-yl)phenyl)-6-methyl-N^8-neopentylpyrido[3,4-d]pyrimidine-2,8-diamine]
